Data as given in ChEMBL document CHEMBL1201862, “PubChem BioAssay data set” (2004).
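Test compounds were applied to cells in 96-well plates for 48 hours at 5 doses. GI50: concentration for 50% inhibition of growth.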 Active and inactive are the calls of the source. Cut-off read from the data, not from the text of the source: active = GI50 up to about 1.1 µM and inactive = higher.

Assays:
Assay in all cases: inhibition of tumour cell growth, NCI panel, 48 h
K562 = test system: K562
786-0 = test system: 786-0
CAKI-1 = test system: CAKI-1
NCI-H23 = test system: NCI-H23
ACHN = test system: ACHN
SK-MEL-2 = test system: SK-MEL-2
MOLT-4 = test system: MOLT-4
NCI-H460 = test system: NCI-H460
UO-31 = test system: UO-31
MDA-MB-435 = test system: MDA-MB-435
NCI-H226 = test system: NCI-H226
SF-268 = test system: SF-268
EKVX = test system: EKVX
HCC 2998 = test system: HCC 2998
HL-60 = test system: HL-60
SN12C = test system: SN12C
MDA-MB-231 = test system: MDA-MB-231
KM12 = test system: KM12
SNB-75 = test system: SNB-75

Measured: GI50

C=C1CCCCCCCCCCC1[S+]([O-])c1ccccc1 (configuration not stated)
inactive: K562 33.8 µM | 786-0 18.8 µM | CAKI-1 > 100 µM | NCI-H23 58.5 µM | ACHN 29.8 µM | SK-MEL-2 > 100 µM | MOLT-4 21.8 µM | NCI-H460 58.9 µM | UO-31 18.2 µM | MDA-MB-435 23.9 µM | NCI-H226 44.7 µM | SF-268 27.7 µM | EKVX > 100 µM | HCC 2998 > 100 µM | HL-60 19.1 µM | SN12C 23.2 µM | MDA-MB-231 24.5 µM

Oc1ccccc1/C=N/c1ccc(-c2nc3ccccc3[nH]2)cc1
inactive: KM12 43.3 µM | K562 43.2 µM | 786-0 > 100 µM | CAKI-1 > 100 µM | NCI-H23 50.5 µM | ACHN > 100 µM | SK-MEL-2 > 100 µM | MOLT-4 21.3 µM | NCI-H460 54.8 µM | UO-31 63.1 µM | MDA-MB-435 67.6 µM | NCI-H226 > 100 µM | SNB-75 42.1 µM | SF-268 43 µM | EKVX > 100 µM | HL-60 25.2 µM | SN12C 79.1 µM | MDA-MB-231 40.5 µM

COc1c(O)cc(/C=C/c2cc(O)cc3c2[C@@]2(C(=O)O3)c3c(O)cc(O)cc3OC2c2cccc(O)c2)cc1O (some centres not stated)
inactive: KM12 39.1 µM | K562 65.3 µM | 786-0 68.7 µM | CAKI-1 98.4 µM | NCI-H23 81.7 µM | ACHN 27.4 µM | SK-MEL-2 94 µM | MOLT-4 1.3 µM | NCI-H460 11.3 µM | UO-31 26.1 µM | MDA-MB-435 54.3 µM | SF-268 62.4 µM | HL-60 28 µM | SN12C 19.2 µM | MDA-MB-231 > 100 µM

Cc1[nH]n(C2=NCCN2)c(=O)c1C
inactive: KM12 > 100 µM | K562 > 100 µM | 786-0 > 100 µM | CAKI-1 > 100 µM | NCI-H23 > 100 µM | ACHN > 100 µM | SK-MEL-2 > 100 µM | MOLT-4 > 100 µM | NCI-H460 > 100 µM | UO-31 > 100 µM | MDA-MB-435 > 100 µM | NCI-H226 > 100 µM | SNB-75 89.5 µM | SF-268 > 100 µM | EKVX > 100 µM | HL-60 > 100 µM | MDA-MB-231 > 100 µM
